ChEMBL document CHEMBL3217446, “Selenosemicarbazones as potent cruzipain inhibitors and their antiparasitic properties against Trypanosoma cruzi” (Medchemcomm, 2012)
Calls of active or inactive are those of the source. No cut-off for these calls is given here.

How the values were obtained:
[1] = target: Cruzipain (Trypanosoma cruzi) (UniProt P25779); assay: Inhibition of Trypanosoma cruzi cruzipain using Z-Phe-Arg-AMC as substrate at 2 uM incubated for 5 mins prior to substrate addition measured after 10 mins by fluorescence assay
[2] = target: Cruzipain (Trypanosoma cruzi) (UniProt P25779); assay: Inhibition of Trypanosoma cruzi cruzipain using Z-Phe-Arg-AMC as substrate at 0.3 uM incubated for 5 mins prior to substrate addition measured after 10 mins by fluorescence assay
[3] = test system: Trypanosoma cruzi; assay: Antitrypanosomal activity against epimastigote stage of Trypanosoma cruzi Dm28c infected in African green monkey Vero cells after 72 hrs relative to untreated control; format: functional, organism-based
[4] = Cytotoxicity against African green monkey Vero cells after 72 hrs by resazurin assay; format: cell-based; conditions: chlorocebus sabaeus
[5] = Selectivity index, ratio of CC50 for African green monkey Vero cells to IC50 for epimastigote stage of Trypanosoma cruzi Dm28c; format: functional
[6] = test system: Trypanosoma cruzi; assay: Antitrypanosomal activity against amastigote stage of Trypanosoma cruzi Dm28c infected in African green monkey Vero cells assessed as growth inhibition at IC50 incubated 8 hrs post infection measured after 24 hrs relative to control; format: functional
[7] = test system: Trypanosoma cruzi; assay: Antitrypanosomal activity against amastigote stage of Trypanosoma cruzi Dm28c infected in African green monkey Vero cells assessed as growth inhibition at 2 times IC50 incubated 8 hrs post infection measured after 24 hrs relative to control; format: functional
[8] = test system: Trypanosoma cruzi; assay: Antitrypanosomal activity against amastigote stage of Trypanosoma cruzi Dm28c infected in African green monkey Vero cells assessed as growth inhibition at 4 times IC50 incubated 8 hrs post infection measured after 24 hrs relative to control; format: functional
[9] = target: Cruzipain (Trypanosoma cruzi) (UniProt P25779); assay: Inhibition of Trypanosoma cruzi cruzipain using Z-Phe-Arg-AMC as substrate at 10 uM incubated for 5 mins prior to substrate addition measured after 10 mins by fluorescence assay
[10] = target: Cruzipain (Trypanosoma cruzi) (UniProt P25779); assay: Slow binding inhibition of Trypanosoma cruzi cruzipain using Z-Phe-Arg-AMC as substrate at 5 to 500 nM after 30 mins by fluorescence assay
[11] = target: Cruzipain (Trypanosoma cruzi) (UniProt P25779); assay: Reversible inhibition of Trypanosoma cruzi cruzipain at 10 uM pre-incubated for 30 mins
[12] = target: T1, Cruzipain (Trypanosoma cruzi, UniProt P25779); assay: Non-competitive inhibition of Trypanosoma cruzi cruzipain using Z-Phe-Arg-AMC as substrate assessed as function of velocity after 30 mins
[13] = target: T1, Cruzipain; assay: Non-competitive inhibition of Trypanosoma cruzi cruzipain using Z-Phe-Arg-AMC as substrate assessed as function of Vmaxapp after 30 mins
[14] = test system: Trypanosoma cruzi; assay: Antitrypanosomal activity against amastigote stage of Trypanosoma cruzi Dm28c infected in African green monkey Vero cells assessed as growth inhibition at 1 uM incubated 8 hrs post infection measured after 24 hrs relative to control; format: functional; conditions: read-out: GI
[15] = test system: Trypanosoma cruzi; assay: Antitrypanosomal activity against amastigote stage of Trypanosoma cruzi Dm28c infected in African green monkey Vero cells assessed as growth inhibition at 15 uM incubated 8 hrs post infection measured after 24 hrs relative to control; format: functional; conditions: read-out: GI
[16] = test system: Trypanosoma cruzi; assay: Antitrypanosomal activity against amastigote stage of Trypanosoma cruzi Dm28c infected in African green monkey Vero cells assessed as growth inhibition at 30 uM incubated 8 hrs post infection measured after 24 hrs relative to control; format: functional; conditions: read-out: GI

T1 sequence (P25779 whole entry): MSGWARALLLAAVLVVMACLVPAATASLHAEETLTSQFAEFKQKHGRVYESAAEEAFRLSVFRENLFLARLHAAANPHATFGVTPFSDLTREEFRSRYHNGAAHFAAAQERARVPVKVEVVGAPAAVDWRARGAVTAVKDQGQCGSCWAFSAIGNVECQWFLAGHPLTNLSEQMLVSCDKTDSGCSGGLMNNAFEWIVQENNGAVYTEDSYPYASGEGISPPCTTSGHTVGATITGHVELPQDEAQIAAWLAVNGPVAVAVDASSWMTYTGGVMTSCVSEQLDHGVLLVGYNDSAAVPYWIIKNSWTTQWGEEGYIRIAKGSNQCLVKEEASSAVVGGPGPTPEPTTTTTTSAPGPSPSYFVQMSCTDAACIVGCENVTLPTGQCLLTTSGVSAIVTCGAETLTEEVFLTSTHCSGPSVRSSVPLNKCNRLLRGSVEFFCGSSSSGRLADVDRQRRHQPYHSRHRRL
Chain of Cruzipain (Trypanosoma cruzi) (P25779 123-467 limits assumed): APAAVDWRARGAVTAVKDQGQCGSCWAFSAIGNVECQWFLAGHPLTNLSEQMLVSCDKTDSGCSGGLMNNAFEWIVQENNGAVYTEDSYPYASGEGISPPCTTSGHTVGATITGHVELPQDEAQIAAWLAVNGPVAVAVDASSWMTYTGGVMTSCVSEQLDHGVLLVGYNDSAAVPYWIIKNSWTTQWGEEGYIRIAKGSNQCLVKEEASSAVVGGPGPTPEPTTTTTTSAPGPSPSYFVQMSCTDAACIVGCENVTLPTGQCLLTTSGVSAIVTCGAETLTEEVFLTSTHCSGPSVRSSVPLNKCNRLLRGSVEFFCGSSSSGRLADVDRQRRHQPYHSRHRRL

Compound | inhibition [1] [%] | inhibition [2] [%] | IC50 [3] [µM] | CC50 at 72 h [4] [µM] | Ratio CC50/IC50 [5] | growth inhibition (GI) [6] [%] | growth inhibition (GI) [7] [%] | growth inhibition (GI) [8] [%] | inhibition [9] [%] | inhibition [10] | inhibition [11] | Ki [12] [µM] | Ki [13] [µM] | inhibition of growth at 1 µM [14] [%] | inhibition of growth at 15 µM [15] [%] | inhibition of growth at 30 µM [16] [%]
NC(=[Se])N/N=C/c1cccc(C(F)(F)F)c1 | 88 | 24 | 3.8 | 167 | 44 | 34 | 70 | 74 | 91 |  |  |  |  |  |  | 
C/C(=N\NC(N)=[Se])c1cccc(Br)c1 | 87 | 81 | 1.2 | 46.4 | 39 | 76 | 77 | 78 | 98 | Active | Active | 0.0297 |  |  |  | 
NC(=[Se])N/N=C/c1cccc(Br)c1 | 93 | 40 | 5.9 | 172 | 29 |  |  |  | 93 |  |  |  |  |  |  | 
CCCC/C(=N/NC(N)=[Se])c1ccc(Cl)c(Cl)c1 | 98 | 95 | 3.2 | 81.8 | 25 | 66 | 73 | 74 | 100 | Active |  | 0.0037 | 0.0064 |  |  | 
O=C(Cn1ccnc1[N+](=O)[O-])NCc1ccccc1 [BENZNIDAZOLE] |  |  | 12.5 | 309 | 25 |  |  |  |  |  |  |  |  | 27 | 77 | 85
NC(=[Se])N/N=C/c1ccc(Cl)c(Cl)c1 | 96 | 57 | 2.3 | 95.1 | 41 | 63 | 69 | 72 | 99 |  |  |  |  |  |  | 
C/C(=N/NC(N)=S)c1cccc(Br)c1 | 79 | 24 |  |  |  |  |  |  | 80 |  |  | 0.142 |  |  |  | 
NC(=[Se])NN=C(c1cccc(Br)c1)c1cccc(Br)c1 | 98 | 90 | 5.2 | 71.2 | 14 |  |  |  | 99 | Active |  | 0.0133 |  |  |  | 
